# Source: patent US11065235B2, “Substituted methanopyrido [2, 1-a] isoindolones as mAChR modulators for treating various associated pathophysiological conditions and process for preparation thereof” (COUNCIL OF SCIENTIFIC & INDUSTRIAL RESEARCH, priority 2017, dated 2021)
# Where two headings read alike, the source gives them in different places.
# Key:
# human M2R = biological target: T1, human M2R (Homo sapiens, UniProt P08172); test: GloSensor cAMP assay (Gi-mediated cAMP inhibition); format: cell-based; details: M2, agonist, N.A. = not active; for IC50: read-out: pIC50/pEC50 (Mean ± SEM) M2 (converted)
# T1 construct: expressed in transfected cells; host or cells: HEK-293T
# T1 sequence (P08172 1-466): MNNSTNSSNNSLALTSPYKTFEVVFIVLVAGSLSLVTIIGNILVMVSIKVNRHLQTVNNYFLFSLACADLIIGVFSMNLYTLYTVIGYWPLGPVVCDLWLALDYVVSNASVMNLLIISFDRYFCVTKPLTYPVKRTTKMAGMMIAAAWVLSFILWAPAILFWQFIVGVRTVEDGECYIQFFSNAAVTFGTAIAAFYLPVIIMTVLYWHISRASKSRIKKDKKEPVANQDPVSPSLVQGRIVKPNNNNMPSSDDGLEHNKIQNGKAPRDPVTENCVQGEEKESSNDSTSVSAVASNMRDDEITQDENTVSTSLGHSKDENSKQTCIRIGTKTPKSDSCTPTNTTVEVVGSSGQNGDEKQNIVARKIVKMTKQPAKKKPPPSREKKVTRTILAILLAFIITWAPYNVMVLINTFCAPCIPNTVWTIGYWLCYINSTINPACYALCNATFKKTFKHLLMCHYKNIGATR
# Description: To measure M2 muscarinic receptor induced (Gi-mediated) cAMP inhibition, HEK-293T cells (procured from NCCS, Pune) were co-transfected with human M2R and luciferase based cAMP biosensor (pGloSensor™-22F plasmid; Promega) using PEImax method of transfection in the ratio of 1:1. The transfected cells were incubated at 37° C. in tissue culture incubator with 5% CO2 for 14-16 hours. For GloSensor cAMP assay, after overnight incubation, media from the plate was aspirated and 100 μl of sodium luciferin solution in drug buffer (1×HBSS (pH7.4) and 20 mM HEPES) was added to the cell plates. The plates were then incubated at 37° C. in tissue culture incubator with 5% CO2 for 90 minutes. After incubation, cells were treated with 20 μl of 6× diluted standard carbamoyl choline (10000 nM to 0.01 nM) along with test compounds (in triplicates) and were incubated in a humidified tissue culture incubator at 37° C. with 5% CO2 for 10-15 minutes to get a steady state condition. Ligand incubation was followed by addition of 20 μl of 7×(70 μM) forskoline (FSK) to the plate. FSK incubation was followed by incubation at 37° C. for 10-15 minutes and measurement of luminescence per well using luminescence plate reader (BMG Labtech). The results were plotted as inhibition of FSK stimulated cAMP response (relative luminescence units) using nonlinear regression analysis by Graph-Pad prism V.
# human M3R = biological target: T2, human M3R (Homo sapiens, UniProt P20309); test: NFAT-luciferase assay, M3; format: cell-based; set-up: IC50 activity, M3 muscarinic receptor antagonist: unit not given beside the values; details: for selectivity among muscarinic receptors (in words): M1, M3 and M5 antagonist profiling; for effectiveness relative to known drug darifenacin at M3: compared with darifenacin 8.9 pKi
# T2 construct: expressed in transfected cells; host or cells: HEK-293T
# T2 sequence (P20309 whole entry): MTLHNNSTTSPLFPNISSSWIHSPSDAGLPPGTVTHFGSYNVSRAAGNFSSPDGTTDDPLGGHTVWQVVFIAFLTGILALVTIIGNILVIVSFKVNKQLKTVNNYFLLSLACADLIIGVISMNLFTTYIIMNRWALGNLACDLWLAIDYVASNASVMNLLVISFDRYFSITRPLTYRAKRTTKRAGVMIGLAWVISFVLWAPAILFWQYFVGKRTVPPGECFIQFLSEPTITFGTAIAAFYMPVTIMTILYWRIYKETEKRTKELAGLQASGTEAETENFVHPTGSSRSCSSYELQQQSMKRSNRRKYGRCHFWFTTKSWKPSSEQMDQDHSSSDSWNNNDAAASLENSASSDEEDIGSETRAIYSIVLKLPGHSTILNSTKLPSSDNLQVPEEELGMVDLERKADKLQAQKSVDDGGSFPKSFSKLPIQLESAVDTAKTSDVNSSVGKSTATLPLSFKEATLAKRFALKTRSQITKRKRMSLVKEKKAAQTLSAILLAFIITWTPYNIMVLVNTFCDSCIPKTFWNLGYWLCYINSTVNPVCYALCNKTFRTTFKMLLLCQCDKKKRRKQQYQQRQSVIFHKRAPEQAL
# Description: (§1) To measure the agonist or antagonist activity at M1, M3 and M5 muscarinic receptor, NFAT-luciferase activity was performed in HEK-293T cells (procured from NCCS, Pune) by co-transfecting with human M1R or M3R or M5R and pGL4.30 (luc2P/NFAT-RE/Hygro; Promega Corp,) in 96 well format. The transfected cells were incubated at 37° C. in tissue culture incubator with 5% CO2 for 14-16 hours. To determine the if the test compounds are agonist, the transfected cells were treated with either 20 μl/well of carbamoyl choline (as a positive control) at various concentrations (10000 nM to 0.01 nM) or with various concentrations of test compounds (in triplicates) and were further incubated for 12 hrs in a humidified tissue culture incubator at 37° C. with 5% CO2. For antagonist mode assay, test compound incubation was followed by addition of 20 μl of 7 μM carbamoylcholine (agonist) to the plate. Following 12-14 hrs of drug treatment, media from the plate was aspirated and 100 μl of sodium luciferin solution (10 mg/ml) was added and luminescence per well was recorded using luminescence plate reader (BMG Labtech).
# [1] = system: Scopolamine induced memory deficit; test: Novel object recognition (NOR) test, scopolamine induced memory deficit; format: in vivo, mice; details: scopolamine alone 0.5 mg/kg i.p., vs vehicle, p<0.05
# Text: (§2) All animal experiments and procedures were executed in accordance with the guidelines established in the guide for the care and use of laboratory animals and were approved by the institutional animal ethics committee (IAEC) of CSIR-Central Drug Research Institute, Lucknow, India. In this study, male C57BL/6J mice (6-8 weeks old) weighing 22-25 g were used. They were housed on a 12-h light/dark cycle (lights on at 8.00 am) and food and water were provided ad libitum. Animals were acclimatized to the experimental room 30 minutes prior to the beginning of behavioral procedures. For experimental purpose, animals were randomly divided into four groups: vehicle, RG-02, scopolamine and scopolamine along with RG-02. In scopolamine along with RG-02 group, RG-02 (10 mg/kg, i.p) was injected thirty minutes prior to the scopolamine (0.5 mg/kg, i.p.) injections.
# The NOR test was performed according to the protocol introduced by Ennaceur and Delacour (Ennaceur & Delacour, 1988) with slight modification.
# The NOR task procedure consisted of three sessions—[…], familiarization and test session. During habituation session, the mouse was placed in an open field (Square box of 40×40×40 cm), facing the wall of the arena, and allowed to explore the entire arena for 10 minutes. Following habituation period of 10 minutes, the mouse was returned to its home cage.
# Between every […] session, the whole arena was cleaned with 10% ethanol to reduce olfactory cues. […] During this session, the test animal was placed in the arena and was allowed to explore the entire arena with familiar and novel object, and its activity was also video recorded. To determine the retention of object memory, the recorded videos of test session were analyzed by independent observer who was unknown to treatment of mice to calculate the time spent in exploring both objects. Data are presented as % time of exploration of familiar or novel object, and discrimination index was calculated as per following equation: (Tn−Tf)/Tt: Discrimination Index […]
# [2] = system: Scopolamine induced memory deficit; test: Morris water maze (MWM) test, scopolamine induced learning deficit; format: in vivo, mice; details: scopolamine alone 0.5 mg/kg i.p.
# Text: as §2
# The Morris water maze (MWM) test was performed according to Morris 1984, with slight modifications. Circular pool of dimensions-100 cm diameter and 45 cm depth, which was filled up to 25 cm from bottom with white colour water. Temperature of water was adjusted to 24-25° C. Pool was divided into four quadrants and a square platform of 10×10 cm in was placed into the tank at a fixed location in the centre of one of the four imaginary quadrants. Training sessions were conducted for 3 consecutive days and on 4th day a probe trial was performed. During training session, mouse was gently placed into the water facing the edge of the pool of one of the quadrant. If the mouse was able to find the platform before the 60 sec cut-off, it was allowed to stay over the platform for 5 more seconds followed by returning to its home cage. […] Total three trials/day were run for each mouse with minimum interval of 10-15 minutes between two trials, and latency to reach the platform was calculated. On the fourth day, for the probe trial, the platform was removed and the time spent in respective quadrant was calculated.
# human M1R = biological target: T3, human M1R (Homo sapiens, UniProt P11229); test: NFAT-luciferase assay, M1; format: cell-based; details: antagonist
# T3 construct: expressed in transfected cells; host or cells: HEK-293T
# T3 sequence (P11229 1-460): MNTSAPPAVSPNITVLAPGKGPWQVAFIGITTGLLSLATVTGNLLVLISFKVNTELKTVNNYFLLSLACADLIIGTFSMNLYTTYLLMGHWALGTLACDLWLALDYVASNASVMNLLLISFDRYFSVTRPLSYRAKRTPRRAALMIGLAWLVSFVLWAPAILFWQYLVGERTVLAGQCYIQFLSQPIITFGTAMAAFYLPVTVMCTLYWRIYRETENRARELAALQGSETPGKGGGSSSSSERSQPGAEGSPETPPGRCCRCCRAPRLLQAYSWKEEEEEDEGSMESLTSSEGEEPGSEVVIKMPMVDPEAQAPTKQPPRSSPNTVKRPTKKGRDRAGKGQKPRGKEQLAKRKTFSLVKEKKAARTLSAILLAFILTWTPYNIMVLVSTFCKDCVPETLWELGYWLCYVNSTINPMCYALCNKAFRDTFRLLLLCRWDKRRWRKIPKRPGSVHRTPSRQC
# Description: as §1
# [3] = M3, antagonist, N.A. = not active, read-out: pIC50/pEC50 (Mean ± SEM) M3 (converted)
smiles,measurement,setting,value
"COC(=O)[C@@H]1c2ccccc2[C@@H]2[C@H](S(=O)(=O)c3ccccc3)C[C@@H]3C(=O)CCC[C@H]3N12 [RG-04, (4aS,6R,6aR,11S,12aR)-methyl 4-oxo-6-(phenylsulfonyl)-1,2,3,4,4a,5,6,6a,11,12a-decahydroisoindolo[2,1-a]quinoline-11-carboxylate]",IC50,human M2R,566 nM
"CCOC(=O)[C@@H]1c2ccccc2[C@@H]2[C@H](S(=O)(=O)c3ccccc3)C[C@@H]3C(=O)CCC[C@H]3N12 [RG-05, (4aS,6R,6aR,11S,12aR)-ethyl 4-oxo-6-(phenylsulfonyl)-1,2,3,4,4a,5,6,6a,11,12a-decahydroisoindolo[2,1-a]quinoline-11-carboxylate]",IC50,human M2R,2160 nM
"O=C1CCC[C@@H]2[C@@H]1C[C@@]1(S(=O)(=O)c3ccccc3)C(=O)[C@@H]3c4ccccc4[C@H]1N32 [(−)-RG-02, (−)-(4aS,6S,6aR,11S,12aR)-6-(phenylsulfonyl)-1,2,3,4a,5,6,6a,12a-octahydro-6,11-methanoisoindolo[2,1-a]quinoline-4,13(11H)-dione]",pIC50/pEC50 (Mean ± SEM) M2,human M2R,8.38 ± 0.35 (agonist)
"Cc1ccc(S(=O)(=O)[C@]23C[C@H]4C(=O)CC[C@H]4N4[C@H](C2=O)c2ccccc2[C@@H]43)cc1 [RG-09, (3aR,5S,5aR,10S,11aR)-5-tosyl-3a,4,5,5a,10,11a-hexahydro-1H-5,10-methanocyclopenta[5,6]pyrido[2,1-a]isoindole-3,12(2H)-dione]",antagonist activity at M3 receptor (in words),human M3R,high affinity antagonist of M3 receptor
same,selectivity among muscarinic receptors (in words),human M3R,selective M3 muscarinic receptor antagonist
same,IC50,"human M3R; as worded in closing text, read-out: IC50 activity, M3 muscarinic receptor antagonist (converted)",0.102 nM
same,effectiveness relative to known drug darifenacin at M3,human M3R,tenfold more effective
"CN1[C@@H]2C[C@@H](OC(=O)[C@H](CO)c3ccccc3)C[C@H]1[C@@H]1O[C@@H]12 [scopolamine, reference compound]",exploration time for the novel object,[1],marked reduction in the exploration time for the novel object
same,latency to reach the platform,[2]; Day-3,increased latency to reach the platform
same,time in quadrant with platform (probe trial),[2]; vs vehicle or RG-02,spent lesser time in quadrant with platform
"Cc1ccc(S(=O)(=O)[C@]23C[C@@H]4C(=O)CCC[C@H]4N4[C@H](C2=O)c2ccccc2[C@@H]43)cc1 [RG-06, (4aS,6S,6aR,11S,12aR)-6-tosyl-1,2,3,4a,5,6,6a,12a-octahydro-6,11-methanoisoindolo[2,1-a]quinoline-4,13(11H)-dione]",antagonist activity at M3 receptor (in words),human M3R,high affinity antagonist of M3 receptor
same,selectivity among muscarinic receptors (in words),human M3R,selective M3 muscarinic receptor antagonist
same,IC50,human M3R; [3],0.129 nM
same,"IC50 activity, M3 muscarinic receptor antagonist",human M3R; as worded in closing text,9.89
same,effectiveness relative to known drug darifenacin at M3,human M3R,tenfold more effective
"Cc1ccc(S(=O)(=O)[C@]23CC4=C(OS(=O)(=O)C(F)(F)F)CCC[C@H]4N4[C@H](C2=O)c2ccccc2[C@@H]43)cc1 [RG-13, (6S,6aR,11S,12aR)-13-oxo-6-tosyl-1,2,3,5,6,6a,11,12a-octahydro-6,11-methanoisoindolo[2,1-a]quinolin-4-yl trifluoromethanesulfonate]",IC50,"human M1R; M1, N.A. = not active, read-out: pIC50/pEC50 (Mean ± SEM) M1 (converted)",871 nM
same,IC50,human M1R; read-out: IC50 at M1 receptor,≤ 1000 nM
same,antagonist activity at M3 receptor (in words),human M3R,high affinity antagonist of M3 receptor
same,selectivity among muscarinic receptors (in words),human M3R,nonselective muscarinic receptor antagonist
same,IC50,human M3R; [3],0.107 nM
